Results from the supplement of paper PMC10307832.

Tests used:
Assay in all cases: relative viability (nuclei count vs DMSO), 5 days (fraction); higher = more cells survive
[1] = compound: CC(=O)Nc1cccc(-n2c(=O)n(C3CC3)c(=O)c3c(Nc4ccc(I)cc4F)n(C)c(=O)c(C)c32)c1 [Trametinib] + COc1cccc2cc(-c3nc([C@H]4CC[C@H](C(=O)O)CC4)n4ncnc(N)c34)[nH]c12 [OSI-027] (partner 0.5 µM)
Method in brief: (§1)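 One day after seeding in 1536-well plates, lung cancer cell lines were dosed by pin tool. Dosing was either single-drug or a fixed anchor-drug dose plus five library-drug doses (not always all listed) in √10 steps. After 5 days, nuclei were stained in one fix-and-stain step and counted on 4× images, and relative viability is the nuclei count of treated wells over that of vehicle wells, given as the median of duplicate plates.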

[2] = compound: CN1C=C(C2=CC=CC=C21)/C=C\3/C4=C(C=CC=N4)NC3=O + Cc1nc(NC(=O)N2CCC[C@H]2C(N)=O)sc1-c1ccnc(C(C)(C)C(F)(F)F)c1 [Alpelisib] (partner 2 µM)
Method in brief: as §1

[3] = compound: CC(=O)Nc1cccc(-n2c(=O)n(C3CC3)c(=O)c3c(Nc4ccc(I)cc4F)n(C)c(=O)c(C)c32)c1 [Trametinib] + C[C@]1(O)C[C@@H](c2nc(-c3ccc4ccc(-c5ccccc5)nc4c3)c3c(N)nccn32)C1 [Linsitinib] (partner 1 µM)
Method in brief: as §1

[4] = compound: CC(=O)Nc1cccc(-n2c(=O)n(C3CC3)c(=O)c3c(Nc4ccc(I)cc4F)n(C)c(=O)c(C)c32)c1 [Trametinib] + O=C(c1cc(Cc2n[nH]c(=O)c3ccccc23)ccc1F)N1CCN(C(=O)C2CC2)CC1 [Olaparib] (partner 8 µM)
Method in brief: as §1

Row | Cell Line | relative viability ([1]; first compound 0.0025 µM) | relative viability ([1]; first compound 0.007906 µM) | relative viability ([1]; first compound 0.025 µM) | relative viability ([1]; first compound 0.07906 µM) | relative viability ([1]; first compound 0.25 µM) | relative viability ([2]; first compound 0.02 µM) | relative viability ([2]; first compound 0.06325 µM) | relative viability ([2]; first compound 0.2 µM) | relative viability ([2]; first compound 0.6325 µM) | relative viability ([2]; first compound 2 µM) | relative viability ([3]; first compound 0.0025 µM) | relative viability ([3]; first compound 0.007906 µM) | relative viability ([3]; first compound 0.025 µM) | relative viability ([3]; first compound 0.07906 µM) | relative viability ([3]; first compound 0.25 µM) | relative viability ([4]; first compound 0.0025 µM) | relative viability ([4]; first compound 0.007906 µM) | relative viability ([4]; first compound 0.025 µM) | relative viability ([4]; first compound 0.07906 µM) | relative viability ([4]; first compound 0.25 µM)
1 | 201T | 0.707 | 0.642 | 0.633 | 0.443 | 0.505 | 0.998 | 1.04 | 1.08 | 1 | 0.913 | 1.01 | 1.02 | 0.863 | 0.959 | 0.778 | 0.841 | 0.782 | 0.747 | 0.678 | 0.642
2 | A549 | – | – | – | – | – | 0.863 | 0.736 | 0.843 | 0.808 | 0.691 | 0.461 | 0.387 | 0.203 | 0.231 | 0.0933 | 0.29 | 0.27 | 0.14 | 0.211 | 0.0478
3 | A-427 | 0.373 | 0.287 | 0.212 | 0.242 | 0.143 | 1.08 | 1.02 | – | 1.08 | 1.13 | 1.11 | 1.14 | 0.631 | 0.825 | 0.432 | 0.748 | 0.828 | 0.729 | 0.671 | 0.524
4 | ABC-1 | 0.403 | 0.439 | 0.28 | 0.266 | 0.225 | 1.05 | 0.785 | 0.84 | 0.714 | 0.923 | 0.673 | 0.462 | 0.537 | 0.421 | 0.41 | 0.821 | 0.725 | 0.977 | 0.752 | 1.13
5 | BEN | 0.317 | 0.274 | 0.27 | 0.294 | 0.325 | 1.05 | 0.932 | 0.981 | 1 | 1.13 | 0.81 | 0.762 | – | 0.687 | 0.882 | 1.15 | 1.04 | 0.995 | 1.01 | 1.02
6 | CAL-12T | 0.543 | 0.333 | 0.224 | 0.353 | 0.193 | 1.47 | 0.924 | 1.1 | 1.16 | 1.06 | 0.79 | 0.607 | 0.484 | 0.428 | 0.341 | 0.692 | 0.555 | 0.522 | 0.511 | 0.487
7 | COR-L23 | 0.686 | 0.7 | 0.364 | 0.455 | 0.249 | 0.764 | 0.698 | 0.718 | 0.724 | 0.589 | 0.874 | 0.851 | 0.827 | 0.639 | 0.306 | 0.422 | 0.473 | 0.43 | 0.392 | 0.261
8 | COR-L 105 | 0.583 | 0.477 | 0.309 | 0.333 | 0.295 | 0.907 | 0.898 | 0.922 | 1.01 | 0.874 | 0.788 | 0.754 | 0.49 | 0.394 | 0.367 | 0.738 | 0.76 | 0.498 | 0.466 | 0.417
9 | Calu-6 | – | – | – | – | – | 0.823 | 0.856 | 0.959 | 0.975 | 0.911 | 0.951 | 0.719 | 0.35 | 0.15 | 0.124 | 0.589 | 0.452 | 0.214 | 0.142 | 0.129
10 | ChaGo-K-1 | 0.558 | 0.488 | 0.51 | 0.423 | 0.403 | – | – | – | – | – | – | – | – | – | – | 0.435 | 0.405 | 0.405 | 0.412 | 0.359
11 | EBC-1 | – | – | – | – | – | 0.727 | 0.776 | 0.894 | 0.823 | 0.784 | 1 | 1.15 | 0.456 | 0.407 | 0.189 | 0.745 | 0.681 | 0.543 | 0.179 | 0.195
12 | EKVX | 0.667 | 0.532 | 0.379 | 0.473 | 0.426 | 0.765 | 0.763 | 0.795 | 0.725 | 0.703 | 0.875 | 0.757 | 0.767 | 0.632 | 0.282 | 0.795 | 0.66 | 0.61 | 0.472 | 0.316
13 | EMC-BAC-2 | 0.452 | 0.488 | 0.381 | 0.511 | 0.359 | 0.673 | 0.452 | 0.736 | 0.768 | 0.799 | 0.744 | 0.754 | 0.634 | 0.674 | 0.537 | 0.638 | 0.623 | 0.617 | 0.69 | 0.476
14 | EPLC-272H | 0.319 | 0.285 | 0.192 | 0.129 | 0.183 | 1.14 | 0.752 | – | 0.83 | 0.835 | 1.23 | 0.89 | 0.471 | 0.659 | 0.489 | 0.628 | 0.406 | 0.332 | 0.322 | 0.173
15 | H3255 | 0.595 | 0.571 | 0.462 | 0.397 | 0.338 | 0.705 | 0.722 | 0.642 | 0.757 | 0.855 | 1.02 | 0.822 | 0.795 | 0.855 | 0.575 | 0.559 | 0.533 | 0.476 | 0.461 | 0.411
16 | HARA | 0.575 | 0.359 | 0.23 | 0.328 | 0.0752 | 0.677 | 0.812 | 0.783 | 0.63 | 0.734 | 0.757 | 0.736 | 0.673 | 0.535 | 0.237 | 0.696 | 0.832 | 0.664 | 0.449 | 0.308
17 | HCC-15 | 0.436 | 0.338 | 0.201 | 0.161 | 0.167 | 1.01 | 0.848 | 0.808 | 0.889 | 0.958 | 0.694 | 0.447 | 0.294 | 0.239 | 0.186 | 0.766 | 0.39 | 0.447 | 0.369 | 0.3
